In patent US12594276B2, “Inhibitors of human immunodeficiency virus replication” (ViiV Healthcare UK (No.5) Limited, priority 2024, dated 2026) one finds EC50 and CC50 data, which are given here for eleven compounds.

Structures are written as SMILES.

In series [1] the test system is recombinant NL4-3 virus (nef section replaced with Renilla luciferase gene) in MT-2 cells. The series can be described thus: HIV cell culture assay (antiviral activity, luciferase readout). The following applies: Renilla, NL43, MT-2 cells infected for 4-5 days with recombinant NL4-3 Renilla luciferase virus. Type of series: cell-based. In short, it runs like this:
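EC50 was derived by median-effect fitting of Renilla luciferase signal from MT-2 cells. These cells were infected for 4–5 days with NL4-3 reporter virus (nef partly replaced by luciferase; made in 293T cells) in the presence of serially diluted compound. Activity was quantified with a live-cell luciferase substrate.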

Series [2] is described as follows: Compound cytotoxicity, XTT-based colorimetric assay. Type of series: cell-based. The following applies: human; uninfected MT2 cells, day 4, XTT; read-out: CC50. In short, it runs like this:
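Uninfected MT2 cells were treated with compound under the same protocol as the antiviral assay. Viability was read on day 4 with an XTT colorimetric assay, from which CC50 values were derived.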
(In general: Formazan colour is commonly taken as a measure of viable cells.)

For the compound `Cc1cc(C2CCC(F)(F)CC2)nc2nc([C@H](Cc3cc(F)cc(F)c3)NC(=O)Cn3nc(C(F)F)c4c3C(F)(F)[C@@H]3C[C@H]43)n(-c3ccc(Cl)c4c(NS(C)(=O)=O)nn(C[C@@H](C)N5C[C@H](F)C[C@H](F)C5)c34)c(=O)c12` (atropisomer, axis not shown; (P)) [Example 683, N-[(1S)-1-[(3P)-3-{4-chloro-1-[(2R)-2-[(3R,5S)-3,5-difluoropiperidin-1-yl]propyl]-3-methanesulfonamido-1H-indazol-7-yl}-7-(4,4-difluorocyclohexyl)-5-methyl-4-oxo-3H,4H-pyrido[2,3-d]pyrimidin-2-yl]-2-(3,5-difluorophenyl)ethyl]-2-[(2S,4R)-9-(difluoromethyl)-5,5-difluoro-7,8-diazatricyclo[4.3.0.0^2,^4]nona-1(6),8-dien-7-yl]acetamide], the EC50 in series [1] is 0.006 nM. In series [2], the CC50 at 4 days is above 20 nM.
Taken in the same sequence, the figures for `CS(=O)(=O)Nc1nn(CCN2CCOC(C(F)F)C2)c2c(-n3c([C@H](Cc4cc(F)cc(F)c4)NC(=O)Cn4nc(C(F)F)c5c4C(F)(F)[C@@H]4C[C@H]54)nc4nc(C5CCC(F)(F)CC5)ccc4c3=O)ccc(Cl)c12` (stereo partly drawn) [Example 187, N-[(1S)-1-[(3P)-3-(4-chloro-1-{2-[2-(difluoromethyl)morpholin-4-yl]ethyl}-3-methanesulfonamido-1H-indazol-7-yl)-7-(4,4-difluorocyclohexyl)-4-oxo-3H,4H-pyrido[2,3-d]pyrimidin-2-yl]-2-(3,5-difluorophenyl)ethyl]-2-[(2S,4R)-9-(difluoromethyl)-5,5-difluoro-7,8-diazatricyclo[4.3.0.0^2,4]nona-1(6),8-dien-7-yl]acetamide] were 0.032 nM and above 50 nM.
`COCCCn1nc(NS(C)(=O)=O)c2c(Cl)ccc(-n3c([C@H](Cc4cc(F)cc(F)c4)NC(=O)Cn4nc(C(F)F)c5c4C(F)(F)[C@@H]4C[C@H]54)nc4nc(C5CCC(F)(F)CC5)cc(NCCN5C[C@@H](C)O[C@@H](C)C5)c4c3=O)c21` (atropisomer, axis not shown; (P)) [Example 475]: the EC50 in series [1] turned out to be 0.004 nM. For the same compound, in series [2], the CC50 at 4 days was above 20 nM.
On to `Cc1cc(C2CCC(F)(F)CC2)nc2nc([C@H](Cc3cc(F)cc(F)c3)NC(=O)Cn3nc(C(F)(F)F)c4c3C(F)(F)[C@@H]3C[C@H]43)n(-c3ccc(Cl)c4c(NS(C)(=O)=O)nn(CCN5CCOCC5)c34)c(=O)c12` (atropisomer, axis not shown; (P)) [Example 116, N-[(1S)-1-[(3P)-3-{4-chloro-3-methanesulfonamido-1-[2-(morpholin-4-yl)ethyl]-1H-indazol-7-yl}-7-(4,4-difluorocyclohexyl)-5-methyl-4-oxo-3H,4H-pyrido[2,3-d]pyrimidin-2-yl]-2-(3,5-difluorophenyl)ethyl]-2-[(2S,4R)-5,5-difluoro-9-(trifluoromethyl)-7,8-diazatricyclo[4.3.0.0^2,^4]nona-1(6),8-dien-7-yl]acetamide], for which the EC50 in series [1] was 0.012 nM. In addition, the CC50 at 4 days in series [2] is above 50 nM.
Take `COCCNc1cc(C2CCC(F)(F)CC2)nc2nc([C@H](Cc3cc(F)cc(F)c3)NC(=O)Cn3nc(C(F)F)c4c3C(F)(F)[C@@H]3C[C@H]43)n(-c3ccc(Cl)c4c(NS(C)(=O)=O)nn(CCOC)c34)c(=O)c12` (atropisomer, axis not shown; (P)) [Example 134, N-[(1S)-1-[(3P)-3-[4-chloro-3-methanesulfonamido-1-(2-methoxyethyl)-1H-indazol-7-yl]-7-(4,4-difluorocyclohexyl)-5-[(2-methoxyethyl)amino]-4-oxo-3H,4H-pyrido[2,3-d]pyrimidin-2-yl]-2-(3,5-difluorophenyl)ethyl]-2-[(2S,4R)-9-(difluoromethyl)-5,5-difluoro-7,8-diazatricyclo[4.3.0.0^2,^4]nona-1(6),8-dien-7-yl]acetamide]: the EC50 in series [1] is 0.022 nM. Also, the CC50 at 4 days in series [2] was above 50 nM.
Turning to `Cc1cc(C2(F)CCC(F)(F)CC2)nc2nc([C@H](Cc3cc(F)cc(F)c3)NC(=O)Cn3nc(C(F)F)c4c3C[C@@H]3C[C@H]43)n(-c3ccc(Cl)c4c(NS(C)(=O)=O)nn(CCN5C[C@H](F)C[C@H](F)C5)c34)c(=O)c12` (atropisomer, axis not shown; (P)) [Example 571, N-[(1S)-1-[(3P)-3-(4-chloro-1-{2-[(3R,5S)-3,5-difluoropiperidin-1-yl]ethyl}-3-methanesulfonamido-1H-indazol-7-yl)-5-methyl-4-oxo-7-(1,4,4-trifluorocyclohexyl)-3H,4H-pyrido[2,3-d]pyrimidin-2-yl]-2-(3,5-difluorophenyl)ethyl]-2-[(2S,4S)-9-(difluoromethyl)-7,8-diazatricyclo[4.3.0.0^2,^4]nona-1(6),8-dien-7-yl]acetamide], in series [1], the EC50 stood at 0.014 nM. For the same compound, the CC50 at 4 days in series [2] was above 20 nM.
Take `Cc1cc(C2(F)CCC(F)(F)CC2)nc2nc([C@H](Cc3cc(F)cc(F)c3)NC(=O)Cn3nc(C(F)F)c4c3C(F)(F)[C@@H]3C[C@H]43)n(-c3ccc(Cl)c4c(NS(C)(=O)=O)nn(C[C@@H](C)N5C[C@@H](C)O[C@@H](C)C5)c34)c(=O)c12` (atropisomer, axis not shown; (P)) [Example 720, N-[(1S)-1-[(3P)-3-{4-chloro-1-[(2R)-2-[(2R,6S)-2,6-dimethylmorpholin-4-yl]propyl]-3-methanesulfonamido-1H-indazol-7-yl}-5-methyl-4-oxo-7-(1,4,4-trifluorocyclohexyl)-3H,4H-pyrido[2,3-d]pyrimidin-2-yl]-2-(3,5-difluorophenyl)ethyl]-2-[(2S,4R)-9-(difluoromethyl)-5,5-difluoro-7,8-diazatricyclo[4.3.0.0^2,^4]nona-1(6),8-dien-7-yl]acetamide]: in series [1], the EC50 amounted to 0.007 nM. For the same compound, the CC50 at 4 days in series [2] was above 20 nM.
On to `COCCCn1nc(NS(C)(=O)=O)c2c(Cl)ccc(-n3c([C@H](Cc4cc(F)cc(F)c4)NC(=O)Cn4nc(C(F)F)c5c4C(F)(F)[C@@H]4C[C@H]54)nc4nc(C5CCC(F)(F)CC5)cc(NCCN5C[C@H](F)C[C@H](F)C5)c4c3=O)c21` (atropisomer, axis not shown; (P)) [Example 509, N-[(1S)-1-[(3P)-3-[4-chloro-3-methanesulfonamido-1-(3-methoxypropyl)-1H-indazol-7-yl]-7-(4,4-difluorocyclohexyl)-5-({2-[(3R,5S)-3,5-difluoropiperidin-1-yl]ethyl}amino)-4-oxo-3H,4H-pyrido[2,3-d]pyrimidin-2-yl]-2-(3,5-difluorophenyl)ethyl]-2-[(2S,4R)-9-(difluoromethyl)-5,5-difluoro-7,8-diazatricyclo[4.3.0.0^2,^4]nona-1(6),8-dien-7-yl]acetamide], for which, in series [1], the EC50 stood at 0.006 nM. In series [2], the CC50 at 4 days is above 20 nM.
Taken in the same sequence, the figures for `COCCNc1cc(C2CCC(F)(F)CC2)nc2nc([C@H](Cc3cc(F)cc(F)c3)NC(=O)Cn3nc(C(F)F)c4c3C(F)(F)[C@@H]3C[C@H]43)n(-c3ccc(Cl)c4c(NS(C)(=O)=O)nn(CCN5CCC(F)(F)CC5)c34)c(=O)c12` (atropisomer, axis not shown; (P)) [Example 413, N-[(1S)-1-[(3P)-3-{4-chloro-1-[2-(4,4-difluoropiperidin-1-yl)ethyl]-3-methanesulfonamido-1H-indazol-7-yl}-7-(4,4-difluorocyclohexyl)-5-[(2-methoxyethyl)amino]-4-oxo-3H,4H-pyrido[2,3-d]pyrimidin-2-yl]-2-(3,5-difluorophenyl)ethyl]-2-[(2S,4R)-9-(difluoromethyl)-5,5-difluoro-7,8-diazatricyclo[4.3.0.0^2,^4]nona-1(6),8-dien-7-yl]acetamide] were 0.013 nM and above 20 nM.
Taken in the same sequence, the figures for `COCCCn1nc(NS(C)(=O)=O)c2c(Cl)ccc(-n3c([C@H](Cc4cc(F)cc(F)c4)NC(=O)Cn4nc(C(F)F)c5c4C(F)(F)[C@@H]4C[C@H]54)nc4nc(C5CCC(F)(F)CC5)cc(NCCN5CCC(F)(F)CC5)c4c3=O)c21` (atropisomer, axis not shown; (P)) [Example 498, N-[(1S)-1-[(3P)-3-[4-chloro-3-methanesulfonamido-1-(3-methoxypropyl)-1H-indazol-7-yl]-7-(4,4-difluorocyclohexyl)-5-{[2-(4,4-difluoropiperidin-1-yl)ethyl]amino}-4-oxo-3H,4H-pyrido[2,3-d]pyrimidin-2-yl]-2-(3,5-difluorophenyl)ethyl]-2-[(2S,4R)-9-(difluoromethyl)-5,5-difluoro-7,8-diazatricyclo[4.3.0.0^2,^4]nona-1(6),8-dien-7-yl]acetamide] were 0.018 nM and above 20 nM.
For the compound `Cc1cc(C2(F)CCC(F)(F)CC2)nc2nc([C@H](Cc3cc(F)cc(F)c3)NC(=O)Cn3nc(C4CC4)c4c3C[C@@H]3C[C@H]43)n(-c3ccc(Cl)c4c(NS(C)(=O)=O)nn(CCN5CCO[C@@H](C(C)C)C5)c34)c(=O)c12` (atropisomer, axis not shown; (P)) [Example 581, N-[(1S)-1-[(3P)-3-(4-chloro-3-methanesulfonamido-1-{2-[(2S)-2-(propan-2-yl)morpholin-4-yl]ethyl}-1H-indazol-7-yl)-5-methyl-4-oxo-7-(1,4,4-trifluorocyclohexyl)-3H,4H-pyrido[2,3-d]pyrimidin-2-yl]-2-(3,5-difluorophenyl)ethyl]-2-[(2S,4S)-9-cyclopropyl-7,8-diazatricyclo[4.3.0.0^2,^4]nona-1(6),8-dien-7-yl]acetamide], the EC50 in series [1] is 0.015 nM. In series [2], the CC50 at 4 days is above 20 nM.

What is called EC50 is the concentration giving half of the maximal effect. What is called CC50 is the concentration that lowers cell viability or growth by half.
